Earlier results on one compound are cited in patent US8138216B2, “Cannabinoid receptor antagonists/inverse agonists useful for treating metabolic disorders, including obesity and diabetes” (Jenrin Discovery, Inc., priority 2007, dated 2012).

For the data set, the system named is patients with type 2 diabetes. The conditions noted are these: after six months of treatment; baseline value 7.9; patients not treated with other anti-diabetic medications; placebo 0.3%.

For the compound `Cc1c(C(=O)NN2CCCCC2)nn(-c2ccc(Cl)cc2Cl)c1-c1ccc(Cl)cc1` [rimonabant], the HbA1c levels lowered is reported as 0.8%.
